Key:
[1] = test system: HT-1080 xenografts; experiment: HT-1080 tumor treatment study; format: in vivo, mouse; conditions: nude Balb/c mice; 100 or 50 mg/Kg, QD×5 days, IP
Protocol: Nude Balb/c (Nu/Nu strain, Charles River Laboratories), female, 5-6 week old (˜20 g average body weight).
Both compounds were formulated in an identical manner. For the 100 mg/kg dose level, each compound was delivered at a concentration of 10.0 mg/ml, in an injection volume of 0.2 ml. For the 50 mg/kg dose level, each compound was delivered at a concentration of 5.0 mg/ml, in an injection volume of 0.2 ml. For both dose levels, the vehicle contained 0.025% Tween-80, 0.01% benzyl alcohol, 35 mM acetic acid (HOAc), 100 mM potassium phosphate-buffer, and 32 mM sucrose, pH=6.5.
• A: PRLX compound 6 @ 100 mg/Kg, QD×5 days, IP, n=8 • B: PRLX compound 6 @ 50 mg/Kg, QD×5 days, IP, n=8 • C: PRLX compound 5 @ 100 mg/Kg, QD×5 days, IP, n=8 • D: PRLX compound 5 @ 50 mg/Kg, QD×5 days, IP, n=8 • E: Vehicle Control, QD×5 days, IP, n=8 • F: Untreated Control, n=8 Treatment Schedule:
Beginning when the mean tumor volume reached ˜200 mm^3, and continuing through day 5, every day, each animal was administered a single IP injection of one of the above treatments, for a total of 5 doses. […]
Starting on Day 1, all animals were weighed, and tumor dimensions (length (L) and width (W)) were measured, every other day. […]
The resulting tumor volume values were averaged for each study group for each time point, and were then plotted against time. Variance was expressed as standard error of the mean (±SEM).

[2] = test system: PANC-1 xenografts; experiment: PANC-1 tumor treatment study; format: in vivo; conditions: immunodeficient nude mouse; once a day for five consecutive days
Protocol: The experimental plan for the PANC-1 study was essentially identical to that of the HT-1080 study outlined above in Example 10 with the following exceptions: approximately 30-40 mg fragment of passaged PANC-1 tumor tissue was implanted subcutaneously in the right flank of an immunodeficient nude mouse. Tumor growth was monitored daily and when the tumors reached approximately 100 mm^3, animals harboring similarly sized tumors were group matched and compound dosing was initiated. Administration of compound 5 occurred once a day for five consecutive days at the doses listed below. In the PANC-1 xenografts, gemcitabine, administered at the maximum tolerated dose for the model, was used as a control. The gemcitabine regimen was 180 mg/kg […] on every third day over a period of 9 days.

[3] = test system: engineered cell lines; experiment: Selectivity across the engineered cell lines (calcein AM IC50 ratios); format: cell-based, human; conditions: from selectivity ratio for each subsequent pair of cell lines in a series
Protocol: To calculate this selectivity score between two cell lines, the IC50 for a compound in one cell line was divided by the IC50 for the same compound in a second cell line. […] The “tumor selectivity score” was calculated for each compound, by dividing the IC50 value for the compound in the parental, primary BJ cells by the IC50 value for the compound in engineered BJ-TERTALT/ST/RAS^V12 cells, containing all four genetic elements required to create tumorigenic cells (Table 1).
Applicants sought to determine the genetic basis of selectivity for each compound. That is, for each compound, they attempted to define the gene or combination of genes responsible for rendering cells sensitive to the compound (Table 1).
The IC50 in primary BJ cells was divided by the IC50 in BJ-TERT/LT/ST/RAS^V12 tumorigenic cells to obtain a tumor selectivity ratio for each compound. The compound selectivity for each genetic element was determined by calculating the selectivity ratio for each subsequent pair of cell lines in a series.

[4] = test system: BJ primary cells; experiment: Sensitization of BJ primary cells by co-treatment (calcein AM viability); format: cell-based, human; conditions: BJ (or BJ-TERT) cells, simultaneous treatment with camptothecin
Source text: (A-C) Western blot of lysates from BJ, BJ-TERT, BJ-TERT/LT/ST, BJ-TERT/LT/ST/RAS^V12, BJ-TERT/LT/RAS^V12 and BJ-TERT/LT/RAS^V12/ST cells with an antibody directed against topoisomerase II (A) or TOPI (B, C). In panel (C), cells were transfected with a siRNA directed against TOPI, lamic A/C or with a control double strand DNA duplex of the same length (TOPI dsDNA). In each case, the blot was probed with an antibody against eIF-4E to identify differences in the amount of protein loaded. The relative amount is quantitated below each band. (D) A TOPI siRNA prevents cell death caused by camptothecin in engineered tumor cells. Cell number was determined after transfection with a siRNA directed against TOPI and treatment with the indicated concentrations of camptothecin. (E) Okadaic acid, an inhibitor of PP2A and other cellular phosphatases, sensitizes primary human cells to camptothecin. BJ primary cells were treated simultaneously with the indicated concentrations of both camptothecin and okadaic acid and the effect on calcein AM viability staining was determined. […] BJ primary cells were treated with the indicated concentrations of okadaic acid and the expression level of TOPI was determined by western blot. The relative amount is quantitated below each band.
The compounds in group (iii) are camptothecin (CPT) and a novel compound from a combinatorial library, which Applicants have named erastin, for eradicator of RAS and ST-expressing cells (FIG. 2). Efficient CPT-induced and erastin-induced cell death requires the presence of both ST and RAS^V12 (FIGS. 3 and 4 and Table 1). Although CPT and erastin have a similar genetic basis of selectivity, they have distinct mechanisms of action. CPT is partially active in cells lacking RB function (via expression of E7), whereas erastin is not, and CPT requires two days to cause death in BJ-TERT/LT/ST/RAS^V12 cells, while erastin is 100% effective within 18 hours (FIGS. 3 and 4). […]

[5] = test system: BJ-TERT/LT/ST/RAS^V12 tumorigenic cells; experiment: Calcein AM viability assay, BJ-TERT/LT/ST/RAS^V12 cells; format: cell-based, human
Source text: Described here is work carried out to identify compounds with increased potency or activity in the presence of hTERT, LT, ST, E6, E7 or RAS^V12. Although the work described herein made use of hTERT, LT, ST, E6, E7 and RAS^V12 as transforming genes, future studies can make use of a wide variety of cancer-associated alleles using this methodology in order to define the signaling networks that involve many oncogenes and tumor suppressors. Engineered cell lines with these genetic elements were used to screen 23,550 compounds, including 20,000 compounds from a combinatorial library, 1,990 compounds from the National Cancer Institute diversity collection, and 1,540 biologically active known compounds that were selected and purchased by Applicant and formatted into a screenable collection. […] Cell viability was measured using the dye calcein acetoxymethyl ester (calcein AM) (Wang et al., 1993, Hum. Immunol. 37, 264-270), which is a non-fluorescent compound that freely diffuses into cells. […]
Calcein acetoxylmethyl ester (AM) is a cell membrane-permeable, non-fluorescent compound that is cleaved by intracellular esterases to form the anionic, cell-impermeable, fluorescent compound calcein. […] Total fluorescence intensity in each well was recorded on a Packard Fusion platereader, and converted to a percent inhibition of signal by subtracting the instrument background and dividing by the average signal obtained when cells were not treated with any compound. […]
Mean RFU (relative fluorescence units) for untreated cells was calculated by averaging columns 1, 2, and 23 (wells with cells but lacking compounds). The calcein background was calculated by averaging column 24 (wells with calcein, but lacking cells). Percentage inhibition of each well was calculated as [1−(RFU−calcein control)/(untreated cell−calcein control)*100]. […]

Q: Which “antitumor activity in HT-1080 xenografts (tumor volume)” value [1] does the source give for `CCOc1ccccc1-n1c(C(C)N2CCNCC2)nc2ccccc2c1=O` (stereo not shown) [Compound 6] here?
A: Its value is “tumor growth inhibition”.

Q: What about the “antitumor activity in PANC-1 xenografts (tumor volume)” value [2] of the same compound?
A: The value was “tumor growth inhibition”.

Q: Which “Genetic basis of Selectivity” value [3] does the source give for `CS[C@H]1SC[C@H]2C(=O)N(C)[C@@H](C(C)C)C(=O)OC[C@@H](NC(=O)c3cnc4ccccc4n3)C(=O)N[C@@H](C)C(=O)N(C)[C@@H]1C(=O)N(C)[C@@H](C(C)C)C(=O)OC[C@@H](NC(=O)c1cnc3ccccc3n1)C(=O)N[C@@H](C)C(=O)N2C` [Echinomycin, echinomycin] here?
A: Its value is “non-specific”.

Q: How did the “Genetic basis of Selectivity” value [3] turn out when `COc1cccc2c1C(=O)c1c(O)c3c(c(O)c1C2=O)C[C@@](O)(C(=O)CO)C[C@@H]3O[C@H]1C[C@H](N)[C@H](O)[C@H](C)O1` [Doxorubicin, doxorubicin] was run?
A: The value was “TERT/RB”.

Q: `COc1cccc2c1C(=O)c1c(O)c3c(c(O)c1C2=O)C[C@@](O)(C(C)=O)C[C@@H]3O[C@H]1C[C@H](N)[C@H](O)[C@H](C)O1` [Daunorubicin, daunorubicin] was tested. Which “Genetic basis of Selectivity” value [3] did it give?
A: Its value is “TERT/RB”.

Q: For `COc1cc([C@@H]2c3cc4c(cc3[C@H](O)[C@H]3COC(=O)[C@H]23)OCO4)cc(OC)c1OC` [podophyllotoxin], which sensitization to camptothecin [4] is on record?
A: Its sensitization to camptothecin is “does not sensitize BJ or BJ-TERT cells to CPT”.

Q: `COc1ccc(C[C@H]2C(=O)N[C@@H](C)C(=O)N(C)[C@@H]3C(=O)N(C)[C@@H](Cc4ccc(O)c(c4)Oc4ccc(cc4)[C@@H]3O)C(=O)N[C@H](C)C(=O)N[C@@H](C)C(=O)N2C)cc1` [Bouvardin] was tested. Which “Genetic basis of Selectivity” value [3] did it give?
A: Its value is “non-specific”.

Q: How did the “Genetic basis of Selectivity” value [3] turn out when `NC(=O)c1cn([C@@H]2O[C@H](CO)[C@@H](O)[C@H]2O)c2ncnc(N)c12` [Sangivamycin, sangivamycin] was run?
A: The value was “non-specific”.

Q: How did the “Genetic basis of Selectivity” value [3] turn out when `O=C1c2c(O)ccc(O)c2C(=O)c2c(NCCNCCO)ccc(NCCNCCO)c21` [Mitoxantrone, mitoxantrone] was run?
A: Its value is “TERT/RB”.

Q: With `CCOc1ccccc1-n1c(CN2CCNCC2)nc2ccccc2c1=O` [Compound 5, 3-(2-ethoxyphenyl)-2-(piperazin-1-ylmethyl)quinazolin-4(3H)-one] as the compound, how does the “antitumor activity in HT-1080 xenografts (tumor volume)” value [1] read?
A: The value was “robust tumor regression”.

Q: What about the “antitumor activity in PANC-1 xenografts (tumor volume)” value [2] of the same compound?
A: Its value is “tumor regression”.

Q: Which results are given for `CCOc1ccccc1-n1c(C(C)N2CCN(C(=O)COc3ccc(Cl)cc3)CC2)nc2ccccc2c1=O` (stereo not shown) [Erastin, erastin]?
A: effectiveness of cell killing ([5]; BJ-TERT/LT/ST/RAS^V12 cells, within 18 hours): 100%; time to irreversible, non-apoptotic cell death ([5]; ST- and RAS^V12-dependent): 12 to 24 h

— US7615554B2, “Erastin and erastin binding proteins, and uses thereof” (Prolexys Pharmaceuticals, Inc., priority 2005, dated 2009)
